Measured values taken from patent publication US8236849B2, “Model for glutamate racemase inhibitors and glutamate racemase antibacterial agents” (Ohio Northern University, priority 2008, dated 2012).

Test system: S. pneumoniae R6 strain
Assay: Whole-cell assay on blood agar plates, inhibition zones
Type: cell-based
Settings: 0.5, 0.75 and 1.0 μg/mL, data not shown
Experimental: Whole-cell Assays: Selected compounds were assayed against S. pneumoniae on blood agar plates as shown on FIG. 3.

| Structure (SMILES) | antibacterial activity (inhibition zones compared to DMSO) |
| --- | --- |
| O=C(CC(NCCc1c[nH]c2ccccc12)C(=O)O)c1ccc(F)cc1 (centres unmarked) [Compound B, 2-(2-(1H-indol-3-yl)ethylamino)-4-(4-fluorophenyl)-4-oxobutanoic acid] | significant antibacterial activity |
| Cc1ccc(C(=O)CC(NCCc2c[nH]c3ccccc23)C(=O)O)cc1 (centres unmarked) [Compound A, 2-(2-(1H-indol-3-yl)ethylamino)-4-oxo-4-p-tolylbutanoic acid] | weaker antibacterial activity than Compound B |
